Experimental data taken from paper PMC10897015, “Investigation of anti-nociceptive, anti-inflammatory potential and ADMET studies of pure compounds isolated from Isodon rugosus Wall. ex Benth” (Frontiers in Pharmacology, 2024).
Where “and” joins values, the source holds several entries; their conditions need not be identical. Identical values can stand only once. Like-named read-outs stand apart in the source and are kept apart here. Marks after values point to notes of the source that are not given here.

Tests used:
[1] = test system: Swiss albino mice; test: Acetic acid-induced writhing test; assay type: in vivo; conditions: for Writhes, individual values: single animals, listed as Comp 2; for % analgesic activity (writhing inhibition) / Mean writhes: oral
Experimental: An anti-nociceptive assessment was performed on Swiss albino mice of both sexes, sourced from the National Institute of Health, Islamabad, Pakistan. […] Mice of either sex were divided into different groups, with five mice in each group. The test samples were carefully administered orally, with doses of 250, 500, 1000, and 2000 mg/kg.
I. rugosus was evaluated for its analgesic potential through an acetic acid-induced writhing test. Oral administration of the test samples was carried out using specified doses. After 30 min of interval, 10 ml/kg of acetic acid (0.6%) was injected into the mice. Group I served as the control and received 0.5% Tween-80 (3 ml/kg), group II received diclofenac sodium (10 mg/kg), and groups III and IV received test compounds. The count of writhes was recorded between 5 and 30 min, following the i/p injection of acetic acid ([Franzotti et al., 2000]).

[2] = test system: mice; test: Carrageenan-induced paw edema; assay type: in vivo; conditions: for % edema volume inhibition (mean): aspirin 10 mg/kg; for Paw edema percent inhibition, individual values / Paw edema, individual values: single animals
Experimental: The animals under study were divided into different groups. Prior to the experiment, the animals had only access to water. […] Additionally, the isolated compounds being tested were given 30 min before injecting 0.05 ml of 1% carrageenan into the sub-plantar region of the paw. To measure the volume changes in the paw, a digital plethysmometer was employed. Readings were taken before and after the carrageenan injection at hourly intervals over a total period of 5 h.

[3] = test system: Swiss albino mice; test: Hot plate test with opioid receptor involvement; assay type: in vivo; conditions: for Reaction time on hot plate, individual values: single animals; for Reaction time on the hot plate: compounds 50 mg/kg, Mor 5 mg/kg, Nal 1 mg/kg
[4] = test system: Swiss albino mice; test: Formalin test with opioid receptor involvement; assay type: in vivo; conditions: for formalin induced pain, licking time, individual values: single animals; for Total time spent in licking 0–5 min: first phase; for Total time spent in licking 0–5 min / Total time spent in licking 15–30 min: compounds 50 mg/kg, Mor 5 mg/kg, Nal 1 mg/kg; for Total time spent in licking 15–30 min: second phase
Experimental: An anti-nociceptive assessment was performed on Swiss albino mice of both sexes, sourced from the National Institute of Health, Islamabad, Pakistan. […] Mice of either sex were divided into different groups, with five mice in each group. […]
The analgesic activity of I. rugosus was assessed through a formalin-induced licking test. The test samples were administered orally at specified doses.

[5] = biological target: T1, COX-2 (Homo sapiens, UniProt P35354); test: Cyclooxygenase-2 inhibitory activity; assay type: biochemical; conditions: for % inhibition, COX-2 (mean ± SEM) / Percent Inhibition (COX-2), single replicates: listed as Comp 2; for Percent Inhibition (COX-2), single replicates: replicates 1-3; for IC50: COX-2
T1 sequence (P35354 18-604): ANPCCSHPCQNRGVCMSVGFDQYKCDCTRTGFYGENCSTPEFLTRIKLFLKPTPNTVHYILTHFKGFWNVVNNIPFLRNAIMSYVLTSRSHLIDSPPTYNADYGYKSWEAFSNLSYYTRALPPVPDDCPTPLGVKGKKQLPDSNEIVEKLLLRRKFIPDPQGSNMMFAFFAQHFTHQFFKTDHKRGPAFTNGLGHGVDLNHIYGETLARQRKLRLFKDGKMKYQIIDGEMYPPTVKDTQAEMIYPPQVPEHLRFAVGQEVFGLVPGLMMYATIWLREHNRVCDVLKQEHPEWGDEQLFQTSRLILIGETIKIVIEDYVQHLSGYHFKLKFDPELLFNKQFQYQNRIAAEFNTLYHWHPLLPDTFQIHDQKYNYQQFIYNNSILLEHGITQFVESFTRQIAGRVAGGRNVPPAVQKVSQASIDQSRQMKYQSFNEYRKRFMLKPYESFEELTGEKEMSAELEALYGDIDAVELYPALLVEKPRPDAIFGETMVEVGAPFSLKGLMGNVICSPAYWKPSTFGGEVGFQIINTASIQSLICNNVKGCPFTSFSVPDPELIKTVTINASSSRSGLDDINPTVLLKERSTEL
Experimental: An enzyme solution with a concentration of 300 U/ml was prepared and activated using ice for 5 min with a 50 µL cofactor solution containing glutathione (0.9 mM), TMPD (N,N,N,N_tetramethyl-p-phenylenediaminedihydrochloride) (0.24 mM), and hematin (1 mM) in Tris buffer (0.1 M) with pH 8. The enzyme solution (60 µL) and test samples (20 µL) with various concentrations were incubated at room temperature for 5 minutes. Celecoxib was used as a positive control in the current assay. The absorbance of the samples was measured at 570 nm after the samples had been incubated for 5 min. Arachidonic acid (30 mM, 20 µL) was added to initiate the reaction. The percent inhibition was calculated from the absorbance value per unit time.

O=C(CCc1ccc(O)cc1)c1c(O)cc(O)cc1O [Compound 2, 2-4-4-6-tetrahydroxy-dihydrochalcone]
Writhes, individual values ([1]; 10mg): 59.2 and 60.82 and 60.05
Writhes, individual values ([1]; 20mg): 55.1 and 54.26 and 56.7
Writhes, individual values ([1]; 25mg): 49.8 and 50.8 and 49.1
Writhes, individual values ([1]; 50mg): 41.02 and 43.67 and 40.12
% analgesic activity (writhing inhibition) ([1]; dose 10 mg/kg): 1.86^ns %
% analgesic activity (writhing inhibition) ([1]; dose 10 mg/kg, listed as compound 2, 10 mg/kg): 01.86%
Mean writhes ([1]; dose 10 mg/kg, writhes counted 5-30 min after acetic acid, 10 mg/kg): 60.02 ± 0.90
Mean writhes ([1]; dose 10 mg/kg, writhes counted 5-30 min after acetic acid, listed as Comp 2, 10 mg/kg): 60.0233
% analgesic activity (writhing inhibition) ([1]; dose 20 mg/kg): 9.49^ns %
Mean writhes ([1]; dose 20 mg/kg): 55.35 ± 0.87
Mean writhes ([1]; dose 20 mg/kg, listed as Comp 2, 20 mg/kg): 55.3533
% analgesic activity (writhing inhibition) ([1]; dose 25 mg/kg): 18.41^* %
Mean writhes ([1]; dose 25 mg/kg): 49.90 ± 0.20
Mean writhes ([1]; dose 25 mg/kg, listed as Comp 2, 25 mg/kg): 49.9
% analgesic activity (writhing inhibition) ([1]; dose 50 mg/kg): 31.98^*** %
Mean writhes ([1]; dose 50 mg/kg): 41.60 ± 1.24
Mean writhes ([1]; dose 50 mg/kg, listed as Comp 2, 50 mg/kg): 41.6033
% edema volume inhibition (mean) ([2]; 1st hour after carrageenan, listed as Comp 2): 36.72%
% edema volume inhibition (mean) ([2]; 2nd hour after carrageenan): 37.45%
% edema volume inhibition (mean) ([2]; 3rd hour after carrageenan): 39.6788%
% edema volume inhibition (mean) ([2]; 4th hour after carrageenan): 32.922%
% edema volume inhibition (mean) ([2]; 5th hour after carrageenan): 29.246%
Paw edema percent inhibition, individual values ([2]; hour 1, listed as Comp 2): 42.03% and 38.64% and 36.29% and 31.91% and 34.73%
Paw edema, individual values ([2]; hour 1, listed as Comp 2): 0.44 and 0.47 and 0.488 and 0.521 and 0.5
Paw edema percent inhibition, individual values ([2]; hour 2, listed as Comp 2): 38.57% and 37.62% and 36.26% and 39.35%
Paw edema, individual values ([2]; hour 2, listed as Comp 2): 0.454 and 0.461 and 0.471 and 0.45 and 0.457
Paw edema percent inhibition, individual values ([2]; hour 3, listed as Comp 2): 40.08% and 38.48% and 38.75% and 40.75% and 40.334%
Paw edema, individual values ([2]; hour 3, listed as Comp 2): 0.45 and 0.462 and 0.46 and 0.445 and 0.449
Paw edema percent inhibition, individual values ([2]; hour 4, listed as Comp 2): 32.11% and 31.19% and 31.85% and 32.63% and 36.83%
Paw edema, individual values ([2]; hour 4, listed as Comp 2): 0.518 and 0.525 and 0.52 and 0.514 and 0.482
Paw edema percent inhibition, individual values ([2]; hour 5, listed as Comp 2): 29.96% and 29.27% and 30.23% and 28.18% and 28.59%
Paw edema, individual values ([2]; hour 5, listed as Comp 2): 0.512 and 0.517 and 0.51 and 0.525 and 0.522
Reaction time on hot plate, individual values ([3]; at 15, listed as Comp-2): 3.02 and 3.9 and 4.6
Reaction time on hot plate, individual values ([3]; at 30, listed as Comp-2): 4.1 and 4.17 and 5.3
Reaction time on hot plate, individual values ([3]; at 45, listed as Comp-2): 3.12 and 2.58 and 4.1
Reaction time on hot plate, individual values ([3]; at 60, listed as Comp-2): 2.3
Reaction time on hot plate, individual values ([3]; at 90, listed as Comp-2): 2.06 and 2.49 and 3.99
Reaction time on the hot plate ([3]; at 15 min): 03.84 ± 0.03 s
Reaction time on the hot plate ([3]; at 15 min, listed as Comp-2): 3.84 s
Reaction time on the hot plate ([3]; at 30 min): 04.52 ± 0.09 s
Reaction time on the hot plate ([3]; at 30 min, listed as Comp-2): 4.523 s
Reaction time on the hot plate ([3]; at 45 min): 3.27 ± 0.48 s
Reaction time on the hot plate ([3]; at 45 min, listed as Comp-2): 3.267 s
Reaction time on the hot plate ([3]; at 60 min): 3.18 ± 0.34 s
Reaction time on the hot plate ([3]; at 60 min, listed as Comp-2): 3.183 s
Reaction time on the hot plate ([3]; at 90 min): 2.85 ± 0.29 s
Reaction time on the hot plate ([3]; at 90 min, listed as Comp-2): 2.847 s
formalin induced pain, licking time, individual values ([4]; 0-5 minutes, listed as Comp 2): 51.46 and 50.12 and 53.09
formalin induced pain, licking time, individual values ([4]; 15-30 minutes, listed as Comp 2): 66.34 and 68.12 and 69.02
Total time spent in licking 0–5 min [4]: 51.55 ± 0.99 s
Total time spent in licking 0–5 min ([4]; listed as Comp 2): 51.5567 s
Total time spent in licking 15–30 min [4]: 67.83 ± 0.57 s
Total time spent in licking 15–30 min ([4]; listed as Comp 2): 67.8267 s
% inhibition, COX-2 (mean ± SEM) ([5]; 62.5 µg/ml): 31.8267%
inhibition at 62.5 µg/mL ([5]; 62.5 µg/ml, read-out: % inhibition, COX-2 (mean ± SEM)): 31.9 ± 0.92%
% inhibition, COX-2 (mean ± SEM) ([5]; 250 µg/ml): 41.1767%
inhibition at 250 µg/mL ([5]; 250 µg/ml, read-out: % inhibition, COX-2 (mean ± SEM)): 41.1 ± 0.24%
% inhibition, COX-2 (mean ± SEM) ([5]; 500 µg/ml): 45.1433%
inhibition at 500 µg/mL ([5]; 500 µg/ml, read-out: % inhibition, COX-2 (mean ± SEM)): 45.1 ± 0.22%
% inhibition, COX-2 (mean ± SEM) ([5]; 1000 µg/ml): 52.9867%
inhibition at 1000 µg/mL ([5]; 1000 µg/ml, read-out: % inhibition, COX-2 (mean ± SEM)): 53 ± 0.79%
Percent Inhibition (COX-2), single replicates ([5]; 62.5): 31.46% and 31.74% and 32.28%
Percent Inhibition (COX-2), single replicates [5]; 125: 37.07% and 37.62% and 35.7%
Percent Inhibition (COX-2), single replicates [5]; 250: 40.49% and 41.18% and 41.86%
Percent Inhibition (COX-2), single replicates [5]; 500: 45.69% and 44.6% and 45.14%
Percent Inhibition (COX-2), single replicates [5]; 1000: 50.07% and 54.17% and 54.72%
IC50 ([5]; read-out: IC50): 2880 µM
IC50 ([5]; read-out: IC50 (µg/ml) (converted)): 2880 µM
